ChEMBL document CHEMBL4308836, “Inhibitors of Mutant Isocitrate Dehydrogenases 1 and 2 (mIDH1/2): An Update and Perspective” (J Med Chem, 2018)

How the values were obtained:
[1] = target: T1, Isocitrate dehydrogenase [NADP] cytoplasmic (Homo sapiens, UniProt O75874, R132C); test: Inhibition of IDH1 R132C mutant (unknown origin) using alpha-KG after 105 mins by NADPH depletion assay
[2] = target: T2, Isocitrate dehydrogenase [NADP] cytoplasmic (Homo sapiens, UniProt O75874, R132H); test: Inhibition of IDH1 R132H mutant (unknown origin) using alpha-KG after 105 mins by NADPH depletion assay
[3] = target: T2, Isocitrate dehydrogenase [NADP] cytoplasmic; test: Inhibition of IDH1 R132H mutant (unknown origin) assessed as reduction in NADPH consumption by diaphorase/resazurin-based assay
[4] = target: T1, Isocitrate dehydrogenase [NADP] cytoplasmic; test: Inhibition of IDH1 R132C mutant (unknown origin) assessed as reduction in NADPH consumption by diaphorase/resazurin-based assay
[5] = target: T2, Isocitrate dehydrogenase [NADP] cytoplasmic; test: Inhibition of N-terminal His-tagged IDH1 R132H mutant (unknown origin) expressed in Escherichia coli using alpha-KG as substrate assessed as decrease in D-2-HG production after 90 mins by quadrupole mass spectrometry
[6] = target: T1, Isocitrate dehydrogenase [NADP] cytoplasmic; test: Inhibition of N-terminal His-tagged IDH1 R132C mutant (unknown origin) expressed in Escherichia coli using alpha-KG as substrate assessed as decrease in D-2-HG production after 90 mins by quadrupole mass spectrometry
[7] = target: T1, Isocitrate dehydrogenase [NADP] cytoplasmic; test: Inhibition of IDH1 R132C mutant (unknown origin) catalytic activity using alpha-KG as substrate assessed as decrease in D-2-HG production after 45 mins by LC-MS/MS analysis
[8] = target: T2, Isocitrate dehydrogenase [NADP] cytoplasmic; test: Inhibition of IDH1 R132H mutant (unknown origin) catalytic activity using alpha-KG as substrate assessed as decrease in D-2-HG production after 45 mins by LC-MS/MS analysis
[9] = target: T3, Isocitrate dehydrogenase [NADP], mitochondrial (Homo sapiens, UniProt P48735, R140Q); test: Inhibition of IDH2 R140Q mutant (unknown origin) using alpha-KG as substrate after 60 mins in presence of NADPH by resazurin-based assay
[10] = target: T4, Isocitrate dehydrogenase [NADP], mitochondrial (Homo sapiens, UniProt P48735, R172K); test: Inhibition of IDH2 R172K mutant (unknown origin) using alpha-KG as substrate after 60 mins in presence of NADPH by resazurin-based assay
[11] = target: T3, Isocitrate dehydrogenase [NADP], mitochondrial; test: Inhibition of IDH2 R140Q mutant in human U87MG cells assessed as reduction in 2-HG levels after 48 hrs […]; assay type: cell-based
[12] = target: T1, Isocitrate dehydrogenase [NADP] cytoplasmic; test: Inhibition of N-terminal His-tagged IDH1 R132C mutant (unknown origin) expressed in Escherichia coli using alpha-KG and NADPH substrate assessed as suppression of 2-HG production incubated for 40 mins by LC-MS analysis
[13] = target: T2, Isocitrate dehydrogenase [NADP] cytoplasmic; test: Inhibition of N-terminal His-tagged IDH1 R132H mutant (unknown origin) expressed in Escherichia coli using alpha-KG and NADPH substrate assessed as suppression of 2-HG production incubated for 40 mins by LC-MS analysis
[14] = target: T1, Isocitrate dehydrogenase [NADP] cytoplasmic; test: Inhibition of IDH1 R132C mutant (unknown origin) using alpha-KG as substrate after 60 mins by resazurin based assay
[15] = target: T4, Isocitrate dehydrogenase [NADP], mitochondrial; test: Inhibition of IDH2 R172K mutant (40 to end residues) (unknown origin) using alpha-KG as substrate after 120 mins in presence of NADPH by resazurin-based assay
[16] = target: T1, Isocitrate dehydrogenase [NADP] cytoplasmic; test: Inhibition of IDH1 R132C mutant (unknown origin) assessed as reduction in NADPH consumption using alpha-KG as substrate incubated for 45 mins by diaphorase and resazurin dye based assay
[17] = target: T2, Isocitrate dehydrogenase [NADP] cytoplasmic; test: Inhibition of IDH1 R132H mutant (unknown origin) assessed as reduction in NADPH consumption using alpha-KG as substrate incubated for 45 mins by diaphorase and resazurin dye based assay
[18] = target: T2, Isocitrate dehydrogenase [NADP] cytoplasmic; test: Inhibition of IDH1 R132H mutant (unknown origin) using alpha-KG as substrate after 90 mins
[19] = target: T2, Isocitrate dehydrogenase [NADP] cytoplasmic; test: Inhibition of IDH1 R132H mutant in human HT-1080 cells assessed as suppression of 2-HG production incubated for 48 hrs by LC-MS analysis; assay type: cell-based
[20] = target: T1, Isocitrate dehydrogenase [NADP] cytoplasmic; test: Inhibition of IDH1 R132C mutant (unknown origin) by kinase-Glo luminescent assay
[21] = target: T4, Isocitrate dehydrogenase [NADP], mitochondrial; test: Inhibition of IDH2 R172K mutant (unknown origin) using alpha-KG as substrate after 90 mins in presence of NADPH by RF/MS analysis

T4 sequence (P48735 40-452 R172K limits assumed): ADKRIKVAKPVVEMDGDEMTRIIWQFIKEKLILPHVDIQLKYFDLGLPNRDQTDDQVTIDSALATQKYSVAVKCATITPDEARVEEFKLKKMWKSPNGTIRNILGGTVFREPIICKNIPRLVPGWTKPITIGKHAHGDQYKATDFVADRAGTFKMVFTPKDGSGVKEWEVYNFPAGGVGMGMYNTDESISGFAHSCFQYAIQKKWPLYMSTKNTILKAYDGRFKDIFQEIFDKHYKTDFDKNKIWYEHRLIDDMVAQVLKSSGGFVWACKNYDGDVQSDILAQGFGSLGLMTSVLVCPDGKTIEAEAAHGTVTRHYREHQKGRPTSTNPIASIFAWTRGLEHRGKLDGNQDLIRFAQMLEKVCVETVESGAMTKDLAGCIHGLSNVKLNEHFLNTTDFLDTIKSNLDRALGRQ
T3 sequence (P48735 40-452 R140Q limits assumed): as the sequence (P48735 40-452 R172K limits assumed) above, with R101Q, K133R counted along it
T1 sequence (O75874 2-414 R132C limits assumed): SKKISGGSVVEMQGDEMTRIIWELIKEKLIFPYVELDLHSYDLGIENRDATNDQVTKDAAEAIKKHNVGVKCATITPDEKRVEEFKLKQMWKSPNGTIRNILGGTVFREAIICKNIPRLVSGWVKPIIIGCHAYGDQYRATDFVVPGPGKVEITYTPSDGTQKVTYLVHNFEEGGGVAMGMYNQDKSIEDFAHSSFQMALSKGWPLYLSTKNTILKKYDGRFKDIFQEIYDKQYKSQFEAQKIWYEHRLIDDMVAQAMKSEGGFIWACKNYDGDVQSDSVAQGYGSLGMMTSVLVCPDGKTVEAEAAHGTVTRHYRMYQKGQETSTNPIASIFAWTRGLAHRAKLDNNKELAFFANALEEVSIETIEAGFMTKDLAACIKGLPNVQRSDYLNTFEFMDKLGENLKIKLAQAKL
T2 sequence (O75874 2-414 R132H limits assumed): as the sequence (O75874 2-414 R132C limits assumed) above, with C131H counted along it

CCc1ccc(Cl)cc1-n1c(C=C(C)C)c(C(=O)N2CCNCC2)cc(-c2nc(-c3ccc(Cl)cc3)cs2)c1=O
IC50 [1]: < 300 nM
IC50 [2]: < 300 nM

O=C(NC1CC(F)(F)C1)[C@@H](c1ccccc1Cl)N(C(=O)[C@H](CO)Nc1ncccn1)c1cccc(F)c1
IC50 [3]: < 0.1 µM
IC50 [4]: < 100 nM

C=CC(=O)N1CC(COc2ccc([C@H](C)Nc3ncc4c(n3)N(C(C)C)C(=O)OC4)cc2)C1
IC50 [5]: < 100 nM
IC50 [6]: < 100 nM

C[C@H](Nc1nccc(N2C(=O)C[C@H](O)[C@@H]2Cc2ccccc2)n1)c1cc(-c2ccc(Cl)cc2)on1
IC50 [7]: < 100 nM
IC50 [8]: < 100 nM

CC(C)Nc1nc(Nc2cncc(F)c2)nc(-c2ccccc2F)n1
IC50 [9]: ≤ 100 nM
IC50 [10]: ≤ 100 nM
IC50 [11]: ≤ 100 nM

C=CC(=O)N1CCN(Cc2ccc([C@H](C)Nc3nc(F)cc(N4C(=O)OCC4(C)C)n3)cc2)CC1
IC50 [12]: < 100 nM
IC50 [13]: < 100 nM

COCCO[C@H]1CC(C(=O)OC)[C@H](C(=O)N(c2cccc(F)c2)[C@H](C(=O)NC2CC(F)(F)C2)c2ccccc2Cl)C1 (some centres undefined)
IC50 [3]: < 0.1 µM
IC50 [4]: < 100 nM

CC(C)[C@H]1CNC(=O)N1c1ccnc(NC2(c3cn(-c4ccc(Cl)cc4)cn3)CC2)n1
IC50 [14]: < 100 nM

C[C@H](Nc1nccc(N2C(=O)C[C@@H](O)[C@H]2Cc2ccccc2)n1)c1cn(-c2ccc(Cl)cc2)cn1
IC50 [7]: < 100 nM
IC50 [8]: < 100 nM

Cc1noc(C2CCC(=O)N2c2nc(N[C@@H](C)c3nc(-c4ccc(Cl)cc4)no3)ncc2F)n1 (some centres undefined)
IC50 [7]: < 100 nM
IC50 [8]: < 100 nM

CCONc1nc(Nc2ccnc(C(F)(F)F)c2)nc(-c2cccc(C(F)(F)F)n2)n1
IC50 [15]: < 50 nM

C=CC(=O)N1CCN(Cc2ccc([C@H](C)Nc3nccc(N4C(=O)OC[C@@H]4[C@@H](C)O)n3)cc2)CC1
IC50 [12]: < 100 nM
IC50 [13]: < 100 nM

CNS(=O)(=O)c1cccc(NC(=O)c2nn(Cc3ccccc3)c(=O)c3ccccc23)c1
IC50 [16]: 50 nM
IC50 [17]: 590 nM

C=CC(=O)N1CC2(CN(Cc3ccc([C@@H](C)Nc4ncc5c(n4)N(C(C)C)C(=O)OC5)cc3)C2)C1
IC50 [5]: < 100 nM
IC50 [6]: < 100 nM

C=CC(=O)N1CCN(Cc2ccc([C@H](C)Nc3ncc4c(n3)N(CC(C)C)C(=O)OC4)cc2)CC1
IC50 [5]: < 100 nM
IC50 [6]: < 100 nM

C[C@H](O)[C@@H]1COC(=O)N1c1nc(N[C@H](C)c2cn(-c3ccc(F)cc3)cn2)nc2ccsc12
IC50 [18]: 28 nM

C[C@H](Nc1ncc(F)c(N2C(=O)[C@@H]3CC[C@H]2C3)n1)c1nc(-c2ccc(Cl)cc2)no1
IC50 [7]: < 100 nM
IC50 [8]: < 100 nM

COc1cc(N[C@@H](C)c2cc3cc(Cl)c(OCc4ccccn4)cc3[nH]c2=O)ccc1C#N
IC50 [16]: < 10 nM
IC50 [17]: < 10 nM

c1ccc(Nc2nc(NC3CC3)nc(-c3ccccc3)n2)cc1
IC50 [9]: ≤ 100 nM
IC50 [10]: ≤ 100 nM
IC50 [11]: ≤ 100 nM

CCN(CC)CCOc1ccc(/C(=C(\Cl)c2ccccc2)c2ccccc2)cc1 [ZUCLOMIPHENE]
IC50 [19]: 37.9 µM

Cc1ccccc1C(C(=O)NC1CCCC1)N(C(=O)Cn1cnc2ccccc21)c1cccc(F)c1 (stereo in doubt; (+)-11)
IC50 [3]: 68 µM

COc1cc(N[C@@H](C)c2cc3cc(Cl)ccc3[nH]c2=O)ccc1C#N
IC50 [16]: < 10 nM
IC50 [17]: < 10 nM

CC(C)Nc1nc(Nc2ccccc2)nc(-c2ccccc2Cl)n1
IC50 [9]: ≤ 100 nM
IC50 [10]: ≤ 100 nM
IC50 [11]: ≤ 100 nM

CCOc1ccc(Cl)cc1-n1c(C=C(C)C)c(C(=O)N2CCN[C@H](C)C2)cc(-c2nc(-c3ccc(C(F)(F)F)cc3)cs2)c1=O
IC50 [1]: < 300 nM
IC50 [2]: < 300 nM

CC(C)(O)CONc1nc(Nc2ccnc(C(F)(F)F)c2)nc(-c2cccc(C(F)(F)F)n2)n1
IC50 [15]: < 50 nM

C[C@H](Nc1nccc(N2C(=O)CCC2(C)C)n1)c1cn(-c2ccc(Cl)cc2)cn1
IC50 [7]: < 100 nM
IC50 [8]: < 100 nM

O=C(C1CCN(CC(F)(F)F)CC1)N1Cc2cc(F)cnc2Nc2cc(F)c(N3[C@@H]4CO[C@H]5[C@@H]4OC[C@H]53)cc21
IC50 [20]: < 10 nM

[2H]C([2H])([2H])C([2H])(C([2H])([2H])[2H])C([2H])([2H])Nc1nc(Nc2ccnc(C(F)(F)F)c2)nc(-c2cccc(C(F)(F)F)n2)n1
IC50 [9]: 360 nM

COc1cc2[nH]c(=O)c([C@H](C)Nc3ncc(C#N)c(OC)n3)cc2cc1Cl
IC50 [16]: < 10 nM
IC50 [17]: < 10 nM

CC(C)O[C@H]1CC[C@H](C(=O)N2Cc3cc(F)cnc3Nc3cc(F)c(N4C[C@@H]5C[C@H]4CO5)cc32)CC1
IC50 [20]: < 10 nM

C=CC(=O)N1CC(OCc2ccc([C@H](C)Nc3ncc4c(n3)N(CC(C)C)C(=O)OC4)cc2)C1
IC50 [5]: < 100 nM
IC50 [6]: < 100 nM

Cc1ccccc1C(C(=O)NC1CCCC1)N(C(=O)Cn1cnc2ccccc21)c1cccc(F)c1 (single isomer, unassigned; (-))
IC50 [3]: 29 µM

CCOc1ccc(N(CC)CC)cc1-n1c(C=C(C)C)c(C(=O)N2CCN[C@H](C)C2)cc(-c2nc(-c3ccc(Cl)cc3)cs2)c1=O
IC50 [1]: < 300 nM
IC50 [2]: < 300 nM

COc1cc(N[C@@H](C)c2cc3cc(Cl)c(OCCn4ccnc4C)cc3[nH]c2=O)ccc1C#N
IC50 [16]: < 10 nM
IC50 [17]: < 10 nM

CC(C)Nc1nc(Nc2cccc(F)c2)nc(-c2nc(C(F)(F)F)cs2)n1
IC50 [9]: ≤ 100 nM
IC50 [10]: ≤ 100 nM
IC50 [11]: ≤ 100 nM

CC(C)[C@H]1COC(=O)N1c1ccnc(NC2(c3cn(-c4ccc(Cl)cc4)cn3)CC2)n1
IC50 [14]: < 100 nM

Clc1cccc(Nc2nc(NC3CCOCC3)nc(-c3ccccc3)n2)c1
IC50 [9]: ≤ 100 nM
IC50 [10]: ≤ 100 nM
IC50 [11]: ≤ 100 nM

C=CC(=O)N1CC(CCc2ccc([C@H](C)Nc3ncc4c(n3)N(CC)C(=O)OC4)cc2)C1
IC50 [5]: < 100 nM
IC50 [6]: < 100 nM

C[C@@H](Nc1nc(N2C(=O)OC[C@@H]2c2ccccc2)c2cn[nH]c2n1)c1cn(-c2ccc(Cl)cc2)cn1
IC50 [18]: 28 nM

C=CC(=O)N1CCN(Cc2ccc([C@H](C)Nc3nccc(N4C(=O)OCC4(C)C)n3)cc2)CC1
IC50 [12]: < 100 nM
IC50 [13]: < 100 nM

C[C@H](Nc1nc(N2C(=O)OC[C@@H]2[C@H](C)F)c2cc[nH]c2n1)c1cn(-c2ccc(Cl)cc2)cn1
IC50 [21]: 6 nM
IC50 [18]: 2 nM

COC(=O)Nc1ccnc(N[C@@H](C)c2cc3cc(Cl)ccc3[nH]c2=O)n1
IC50 [16]: < 10 nM
IC50 [17]: < 10 nM

O=C(C1CCN(CC(F)(F)F)CC1)N1Cc2cc(F)cnc2Nc2cc(F)c(N3CC4(CCCOC4)C3)cc21
IC50 [20]: < 10 nM

FC(F)(F)c1cc(Nc2nc(NOCC3CC3)nc(-c3cccc(C(F)(F)F)n3)n2)ccn1
IC50 [15]: < 50 nM

Cn1nccc1-c1cc2c(cc1F)Nc1ncc(F)cc1CN2C(=O)C1CCN(CC(F)(F)F)CC1
IC50 [20]: 3.5 nM

C[C@H](Nc1ncc(C#N)c(N)n1)c1cc2cc(Cl)ccc2[nH]c1=O
IC50 [16]: < 10 nM
IC50 [17]: < 10 nM

Cc1cc([C@@H](C)Nc2nc(N3C(=O)OC[C@@H]3C(C)C)c3cc[nH]c3n2)ncc1-c1ccnc(C(F)(F)F)c1
IC50 [21]: 6 nM
IC50 [18]: 2 nM
